Columns and labels:
[1] = system: Tyrosine-protein kinase ABL1 (Homo sapiens), P00519 [F317I]; details: Compound concentration 1000.0 nM
[2] = molecular target: Ankyrin repeat and protein kinase domain-containing protein 1 (Homo sapiens) (UniProt Q8NFD2); details: Compound concentration 1000.0 nM
[3] = molecular target: BMP-2-inducible protein kinase (Homo sapiens) (UniProt Q9NSY1); details: Compound concentration 1000.0 nM
[4] = molecular target: Serine/threonine-protein kinase BRSK1 (Homo sapiens) (UniProt Q8TDC3); details: Compound concentration 1000.0 nM
[5] = molecular target: Serine/threonine-protein kinase DCLK3 (Homo sapiens) (UniProt Q9C098); details: Compound concentration 1000.0 nM
Sequence of Serine/threonine-protein kinase DCLK3 (Homo sapiens) (Q9C098 whole entry): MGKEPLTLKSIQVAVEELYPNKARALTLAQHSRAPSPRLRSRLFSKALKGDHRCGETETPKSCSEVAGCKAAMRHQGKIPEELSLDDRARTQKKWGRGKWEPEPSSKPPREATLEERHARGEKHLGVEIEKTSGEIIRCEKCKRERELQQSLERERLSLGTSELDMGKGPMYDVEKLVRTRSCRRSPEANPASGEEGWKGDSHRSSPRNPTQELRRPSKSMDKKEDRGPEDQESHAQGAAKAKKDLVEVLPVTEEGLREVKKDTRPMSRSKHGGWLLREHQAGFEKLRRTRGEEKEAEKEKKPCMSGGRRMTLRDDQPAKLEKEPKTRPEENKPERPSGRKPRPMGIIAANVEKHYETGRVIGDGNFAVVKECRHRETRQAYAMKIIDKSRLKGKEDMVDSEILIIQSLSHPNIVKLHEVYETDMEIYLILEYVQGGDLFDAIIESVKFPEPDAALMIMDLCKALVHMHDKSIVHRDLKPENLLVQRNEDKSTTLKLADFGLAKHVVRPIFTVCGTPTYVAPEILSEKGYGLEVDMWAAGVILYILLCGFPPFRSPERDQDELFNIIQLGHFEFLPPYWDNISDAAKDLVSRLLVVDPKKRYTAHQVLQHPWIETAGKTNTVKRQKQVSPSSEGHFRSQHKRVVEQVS

[6] = molecular target: Serine/threonine-protein kinase MRCK gamma (Homo sapiens) (UniProt Q6DT37); details: Compound concentration 1000.0 nM
[7] = molecular target: Serine/threonine-protein kinase 17B (Homo sapiens) (UniProt O94768); details: Compound concentration 1000.0 nM
[8] = molecular target: Dual specificity tyrosine-phosphorylation-regulated kinase 1A (Homo sapiens) (UniProt Q13627); details: Compound concentration 1000.0 nM
[9] = system: Epidermal growth factor receptor (Homo sapiens), P00533 [UNDEFINED MUTATION]; details: Compound concentration 1000.0 nM
Sequence of Epidermal growth factor receptor (Homo sapiens), P00533 [UNDEFINED MUTATION] (P00533 whole entry, looked up, change not shown): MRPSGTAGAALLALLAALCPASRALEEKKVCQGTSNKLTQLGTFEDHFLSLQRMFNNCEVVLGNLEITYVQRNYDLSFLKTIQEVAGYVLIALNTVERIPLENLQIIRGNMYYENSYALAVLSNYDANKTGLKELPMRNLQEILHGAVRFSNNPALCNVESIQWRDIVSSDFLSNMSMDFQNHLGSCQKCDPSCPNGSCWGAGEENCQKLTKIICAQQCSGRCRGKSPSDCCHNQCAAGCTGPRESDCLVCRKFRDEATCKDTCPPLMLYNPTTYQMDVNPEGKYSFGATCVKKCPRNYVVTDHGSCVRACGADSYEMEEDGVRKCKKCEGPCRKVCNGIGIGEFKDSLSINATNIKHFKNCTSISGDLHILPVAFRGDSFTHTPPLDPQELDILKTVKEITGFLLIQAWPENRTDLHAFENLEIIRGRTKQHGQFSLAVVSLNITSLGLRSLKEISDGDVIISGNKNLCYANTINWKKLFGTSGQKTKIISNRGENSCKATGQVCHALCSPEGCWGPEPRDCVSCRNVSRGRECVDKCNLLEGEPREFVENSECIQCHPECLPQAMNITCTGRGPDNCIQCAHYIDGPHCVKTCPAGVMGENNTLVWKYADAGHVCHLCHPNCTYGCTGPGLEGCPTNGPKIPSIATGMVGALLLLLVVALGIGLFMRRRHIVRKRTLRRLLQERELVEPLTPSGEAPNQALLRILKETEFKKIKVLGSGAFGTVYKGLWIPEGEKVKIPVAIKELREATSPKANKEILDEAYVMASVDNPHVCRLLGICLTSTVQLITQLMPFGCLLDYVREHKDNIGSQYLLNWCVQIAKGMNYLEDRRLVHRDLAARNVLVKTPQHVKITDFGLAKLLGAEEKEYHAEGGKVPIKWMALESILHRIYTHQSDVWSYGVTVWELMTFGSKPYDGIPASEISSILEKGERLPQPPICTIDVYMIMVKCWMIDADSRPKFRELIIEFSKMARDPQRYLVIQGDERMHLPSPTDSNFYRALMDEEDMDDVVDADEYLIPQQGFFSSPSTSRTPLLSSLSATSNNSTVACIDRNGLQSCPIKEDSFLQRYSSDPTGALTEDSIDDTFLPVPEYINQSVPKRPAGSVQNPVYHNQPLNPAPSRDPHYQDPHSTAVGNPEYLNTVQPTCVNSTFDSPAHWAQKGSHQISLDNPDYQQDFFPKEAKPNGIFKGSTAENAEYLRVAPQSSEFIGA

[10] = molecular target: Ephrin type-A receptor 8 (Homo sapiens) (UniProt P29322); details: Compound concentration 1000.0 nM
[11] = molecular target: Ephrin type-B receptor 1 (Homo sapiens) (UniProt P54762); details: Compound concentration 1000.0 nM
[12] = molecular target: Mitogen-activated protein kinase 4 (Homo sapiens) (UniProt P31152); details: Compound concentration 1000.0 nM
Sequence of Mitogen-activated protein kinase 4 (Homo sapiens) (P31152 whole entry): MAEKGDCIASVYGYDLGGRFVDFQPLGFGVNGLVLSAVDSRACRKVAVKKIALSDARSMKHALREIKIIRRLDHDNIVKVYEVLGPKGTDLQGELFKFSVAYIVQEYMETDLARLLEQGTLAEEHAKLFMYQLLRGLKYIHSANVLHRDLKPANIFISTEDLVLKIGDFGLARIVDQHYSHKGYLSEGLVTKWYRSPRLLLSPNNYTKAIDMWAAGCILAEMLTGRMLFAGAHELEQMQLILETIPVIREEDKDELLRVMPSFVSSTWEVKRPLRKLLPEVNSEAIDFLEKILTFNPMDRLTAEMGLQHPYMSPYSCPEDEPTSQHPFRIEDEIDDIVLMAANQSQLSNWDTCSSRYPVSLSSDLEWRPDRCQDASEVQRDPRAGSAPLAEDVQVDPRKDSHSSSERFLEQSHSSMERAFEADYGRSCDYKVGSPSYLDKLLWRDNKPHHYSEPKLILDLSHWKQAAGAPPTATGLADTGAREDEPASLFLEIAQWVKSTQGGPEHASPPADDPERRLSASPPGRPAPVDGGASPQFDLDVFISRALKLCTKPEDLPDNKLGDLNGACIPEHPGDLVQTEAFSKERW

[13] = molecular target: Tyrosine-protein kinase Fer (Homo sapiens) (UniProt P16591); details: Compound concentration 1000.0 nM
[14] = system: Receptor-type tyrosine-protein kinase FLT3 (Homo sapiens), P36888 [N841I]; details: Compound concentration 1000.0 nM
[15] = molecular target: Serine/threonine-protein kinase ICK (Homo sapiens) (UniProt Q9UPZ9); details: Compound concentration 1000.0 nM
[16] = molecular target: Inhibitor of nuclear factor kappa-B kinase subunit epsilon (Homo sapiens) (UniProt Q14164); details: Compound concentration 1000.0 nM
[17] = system: Mast/stem cell growth factor receptor Kit (Homo sapiens), P10721 [D816H]; details: Compound concentration 1000.0 nM
[18] = system: Leucine-rich repeat serine/threonine-protein kinase 2 (Homo sapiens), Q5S007 [G2019S]; details: Compound concentration 1000.0 nM
[19] = molecular target: MAP kinase-activated protein kinase 2 (Homo sapiens) (UniProt P49137); details: Compound concentration 1000.0 nM
Sequence of MAP kinase-activated protein kinase 2 (Homo sapiens) (P49137 whole entry, looked up): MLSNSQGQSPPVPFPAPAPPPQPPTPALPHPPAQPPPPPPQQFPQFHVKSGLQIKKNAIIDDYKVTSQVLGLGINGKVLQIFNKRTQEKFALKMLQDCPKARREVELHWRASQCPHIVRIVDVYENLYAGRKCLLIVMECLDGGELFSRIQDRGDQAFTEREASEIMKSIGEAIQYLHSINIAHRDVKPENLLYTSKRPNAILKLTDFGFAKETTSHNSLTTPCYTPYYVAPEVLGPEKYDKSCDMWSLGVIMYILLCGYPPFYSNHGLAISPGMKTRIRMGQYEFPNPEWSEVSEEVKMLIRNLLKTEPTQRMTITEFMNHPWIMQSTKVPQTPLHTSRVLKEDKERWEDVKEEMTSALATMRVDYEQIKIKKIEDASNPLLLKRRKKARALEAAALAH

[20] = molecular target: MAP kinase-interacting serine/threonine-protein kinase 2 (Homo sapiens) (UniProt Q9HBH9); details: Compound concentration 1000.0 nM
[21] = molecular target: Serine/threonine-protein kinase NLK (Homo sapiens) (UniProt Q9UBE8); details: Compound concentration 1000.0 nM
[22] = molecular target: Serine/threonine-protein kinase PAK 2 (Homo sapiens) (UniProt Q13177); details: Compound concentration 1000.0 nM
[23] = molecular target: Cyclin-dependent kinase 17 (Homo sapiens) (UniProt Q00537); details: Compound concentration 1000.0 nM
[24] = system: Phosphatidylinositol 4,5-bisphosphate 3-kinase catalytic subunit alpha isoform (Homo sapiens), P42336 [I800L]; details: Compound concentration 1000.0 nM
[25] = system: Phosphatidylinositol 4,5-bisphosphate 3-kinase catalytic subunit alpha isoform (Homo sapiens), P42336 [Q546K]; details: Compound concentration 1000.0 nM
[26] = molecular target: Phosphatidylinositol 4,5-bisphosphate 3-kinase catalytic subunit delta isoform (Homo sapiens) (UniProt O00329); details: Compound concentration 1000.0 nM
Sequence of Phosphatidylinositol 4,5-bisphosphate 3-kinase catalytic subunit delta isoform (Homo sapiens) (O00329 whole entry, canonical isoform): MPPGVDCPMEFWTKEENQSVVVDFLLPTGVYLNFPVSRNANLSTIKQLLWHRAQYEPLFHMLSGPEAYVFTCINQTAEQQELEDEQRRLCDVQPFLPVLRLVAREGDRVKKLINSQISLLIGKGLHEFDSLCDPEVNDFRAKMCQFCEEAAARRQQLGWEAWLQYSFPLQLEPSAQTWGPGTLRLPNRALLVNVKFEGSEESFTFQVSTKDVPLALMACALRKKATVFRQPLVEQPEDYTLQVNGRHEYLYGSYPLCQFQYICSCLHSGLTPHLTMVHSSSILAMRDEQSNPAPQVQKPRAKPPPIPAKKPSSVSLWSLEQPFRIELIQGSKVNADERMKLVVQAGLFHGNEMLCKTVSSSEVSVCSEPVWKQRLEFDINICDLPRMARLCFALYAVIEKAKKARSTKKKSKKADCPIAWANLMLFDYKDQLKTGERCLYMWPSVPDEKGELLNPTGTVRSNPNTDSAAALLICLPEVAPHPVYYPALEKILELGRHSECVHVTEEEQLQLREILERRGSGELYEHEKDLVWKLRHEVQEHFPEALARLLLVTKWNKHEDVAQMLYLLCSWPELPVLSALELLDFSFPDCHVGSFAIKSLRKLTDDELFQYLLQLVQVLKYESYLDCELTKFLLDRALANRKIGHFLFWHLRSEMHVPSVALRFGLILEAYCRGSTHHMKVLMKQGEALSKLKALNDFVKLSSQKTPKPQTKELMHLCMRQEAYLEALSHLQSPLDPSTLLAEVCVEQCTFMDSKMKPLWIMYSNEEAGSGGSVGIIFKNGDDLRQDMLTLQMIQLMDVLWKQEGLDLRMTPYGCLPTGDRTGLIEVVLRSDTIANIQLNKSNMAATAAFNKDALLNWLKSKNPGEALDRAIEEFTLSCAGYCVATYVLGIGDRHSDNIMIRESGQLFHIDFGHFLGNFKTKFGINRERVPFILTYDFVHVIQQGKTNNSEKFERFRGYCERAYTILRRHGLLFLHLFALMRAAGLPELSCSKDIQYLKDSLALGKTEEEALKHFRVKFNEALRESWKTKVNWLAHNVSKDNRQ

[27] = molecular target: 1-phosphatidylinositol 3-phosphate 5-kinase (Homo sapiens) (UniProt Q9Y2I7); details: Compound concentration 1000.0 nM
[28] = molecular target: Serine/threonine-protein kinase pim-2 (Homo sapiens) (UniProt Q9P1W9); details: Compound concentration 1000.0 nM
[29] = molecular target: Phosphatidylinositol 5-phosphate 4-kinase type-2 beta (Homo sapiens) (UniProt P78356); details: Compound concentration 1000.0 nM
[30] = molecular target: Membrane-associated tyrosine- and threonine-specific cdc2-inhibitory kinase (Homo sapiens) (UniProt Q99640); details: Compound concentration 1000.0 nM
[31] = molecular target: cGMP-dependent protein kinase 2 (Homo sapiens) (UniProt Q13237); details: Compound concentration 1000.0 nM
[32] = molecular target: Serine/threonine-protein kinase SIK3 (Homo sapiens) (UniProt Q9Y2K2); details: Compound concentration 1000.0 nM
[33] = molecular target: Ribosomal protein S6 kinase alpha-1 (Homo sapiens) (UniProt Q15418); details: Compound concentration 1000.0 nM
[34] = molecular target: Ribosomal protein S6 kinase alpha-2 (Homo sapiens) (UniProt Q15349); details: Compound concentration 1000.0 nM
[35] = molecular target: Dual specificity testis-specific protein kinase 1 (Homo sapiens) (UniProt Q15569); details: Compound concentration 1000.0 nM
[36] = molecular target: Wee1-like protein kinase (Homo sapiens) (UniProt P30291); details: Compound concentration 1000.0 nM
[37] = molecular target: Serine/threonine-protein kinase 32A (Homo sapiens) (UniProt Q8WU08); details: Compound concentration 1000.0 nM
Sequence of Serine/threonine-protein kinase 32A (Homo sapiens) (Q8WU08 whole entry): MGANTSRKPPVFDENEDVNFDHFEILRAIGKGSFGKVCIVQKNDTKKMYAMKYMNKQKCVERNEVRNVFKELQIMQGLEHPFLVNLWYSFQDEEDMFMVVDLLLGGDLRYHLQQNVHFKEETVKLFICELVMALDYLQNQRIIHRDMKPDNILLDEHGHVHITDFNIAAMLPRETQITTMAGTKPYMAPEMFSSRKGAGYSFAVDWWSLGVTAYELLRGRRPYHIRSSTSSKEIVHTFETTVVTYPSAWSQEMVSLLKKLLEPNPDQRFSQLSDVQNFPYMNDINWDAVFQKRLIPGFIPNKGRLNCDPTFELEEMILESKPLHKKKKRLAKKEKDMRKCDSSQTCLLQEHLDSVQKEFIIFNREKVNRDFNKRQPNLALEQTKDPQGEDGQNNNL

[38] = molecular target: T1, Muscarinic acetylcholine receptor M4 (Homo sapiens) (UniProt P08173); details: Compound concentration 10.0 uM
T1 sequence (whole entry): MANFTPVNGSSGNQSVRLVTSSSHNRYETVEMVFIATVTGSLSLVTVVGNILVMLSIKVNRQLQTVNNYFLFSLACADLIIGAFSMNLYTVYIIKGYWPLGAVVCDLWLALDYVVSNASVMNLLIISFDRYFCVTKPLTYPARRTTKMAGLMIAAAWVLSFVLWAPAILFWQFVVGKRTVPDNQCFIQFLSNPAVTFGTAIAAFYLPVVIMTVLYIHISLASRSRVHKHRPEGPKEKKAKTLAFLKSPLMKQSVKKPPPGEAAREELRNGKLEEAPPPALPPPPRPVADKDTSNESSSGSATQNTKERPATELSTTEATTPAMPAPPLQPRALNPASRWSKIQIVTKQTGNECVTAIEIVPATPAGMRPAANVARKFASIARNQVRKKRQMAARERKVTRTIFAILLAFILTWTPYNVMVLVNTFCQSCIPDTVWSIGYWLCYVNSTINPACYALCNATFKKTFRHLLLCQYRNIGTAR

Sequence of Ankyrin repeat and protein kinase domain-containing protein 1 (Homo sapiens) (Q8NFD2 whole entry, the tested form may be a part): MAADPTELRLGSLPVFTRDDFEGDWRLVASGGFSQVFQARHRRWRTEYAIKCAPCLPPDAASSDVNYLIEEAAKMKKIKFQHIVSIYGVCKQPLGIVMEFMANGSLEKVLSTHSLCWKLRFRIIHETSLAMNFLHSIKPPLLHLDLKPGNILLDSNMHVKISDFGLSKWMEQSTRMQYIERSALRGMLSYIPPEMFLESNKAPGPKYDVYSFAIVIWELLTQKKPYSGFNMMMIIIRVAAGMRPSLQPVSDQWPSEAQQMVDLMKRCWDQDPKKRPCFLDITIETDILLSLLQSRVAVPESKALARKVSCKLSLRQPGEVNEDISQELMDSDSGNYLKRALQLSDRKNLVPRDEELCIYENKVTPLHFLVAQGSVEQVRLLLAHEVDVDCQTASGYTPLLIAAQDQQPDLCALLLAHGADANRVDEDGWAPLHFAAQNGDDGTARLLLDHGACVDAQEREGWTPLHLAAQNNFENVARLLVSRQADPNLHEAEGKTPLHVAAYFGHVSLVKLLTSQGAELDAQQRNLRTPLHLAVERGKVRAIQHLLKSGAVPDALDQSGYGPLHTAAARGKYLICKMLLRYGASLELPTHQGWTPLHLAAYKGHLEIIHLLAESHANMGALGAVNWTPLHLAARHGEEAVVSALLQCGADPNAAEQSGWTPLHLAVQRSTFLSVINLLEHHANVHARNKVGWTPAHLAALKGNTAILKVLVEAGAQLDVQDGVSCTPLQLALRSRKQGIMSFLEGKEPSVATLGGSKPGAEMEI

O=C(Nc1ccc(Oc2ccc(F)cc2)cc1)N1CCc2ncccc2[C@H]1c1ccc(F)cc1 [BAY-897]
inactive: residual activity [1] 94% | residual activity [2] 92% | residual activity [3] 94% | residual activity [4] 100% | residual activity [5] 93% | residual activity [6] 93% | residual activity [7] 89% | residual activity [8] 95% | residual activity [9] 92% | residual activity [10] 92% | residual activity [11] 100% | residual activity [12] 95% | residual activity [13] 91% | residual activity [14] 93% | residual activity [15] 76% | residual activity [16] 89% | residual activity [17] 89% | residual activity [18] 100% | residual activity [19] 98% | residual activity [20] 91% | residual activity [21] 87% | residual activity [22] 52% | residual activity [23] 96% | residual activity [24] 66% | residual activity [25] 75% | residual activity [26] 93% | residual activity [27] 95% | residual activity [28] 93% | residual activity [29] 97% | residual activity [30] 63% | residual activity [31] 100% | residual activity [32] 100% | residual activity [33] 79% | residual activity [34] 100% | residual activity [35] 100% | residual activity [36] 100% | residual activity [37] 100% | inhibition [38] 9.29%

O=C(Nc1cnc(Oc2ccc(F)cc2)nc1)N1CCc2ncccc2[C@@H]1c1ccc(F)cc1 [BAY-899]
inactive: residual activity [1] 99% | residual activity [2] 100% | residual activity [3] 93% | residual activity [4] 87% | residual activity [5] 96% | residual activity [6] 98% | residual activity [7] 92% | residual activity [8] 100% | residual activity [9] 86% | residual activity [10] 88% | residual activity [11] 83% | residual activity [12] 95% | residual activity [13] 93% | residual activity [14] 88% | residual activity [15] 92% | residual activity [16] 98% | residual activity [17] 96% | residual activity [18] 100% | residual activity [19] 80% | residual activity [20] 94% | residual activity [21] 73% | residual activity [22] 59% | residual activity [23] 97% | residual activity [24] 69% | residual activity [25] 95% | residual activity [26] 100% | residual activity [27] 63% | residual activity [28] 94% | residual activity [29] 100% | residual activity [30] 80% | residual activity [31] 100% | residual activity [32] 86% | residual activity [33] 71% | residual activity [34] 97% | residual activity [35] 91% | residual activity [36] 85% | residual activity [37] 100% | inhibition [38] 22.8%

— ChEMBL document CHEMBL4507317, “Data for DCP probe BAY-899” (2021)
